Measured values: article PMC3806476, “Natural and Semisynthetic Analogues of Manadoperoxide B Reveal New Structural Requirements for Trypanocidal Activity” (Marine Drugs, 2013)
≈ marks a conversion by molar mass, not a printed value. Where “and” joins values, the source holds several entries; their conditions need not be identical. Equal values may be shown once. Read-outs that look alike come from different tables or passages of the source.

Tests used:
[1] = test system: bloodstream forms of Trypanosoma brucei rhodesiense STIB 900 strain; assay: Activity against Trypanosoma brucei rhodesiense (resazurin, 72 h); format: cell-based; settings: for IC50: Trypanosoma brucei
Method: Minimum Essential Medium (50 µL) supplemented with 25 mM HEPES, 1 g/L additional glucose, 1% MEM non-essential amino acids (100×), 0.2 mM 2-mercaptoethanol, 1mM Na-pyruvate and 15% heat inactivated horse serum was added to each well of a 96-well microtiter plate. Serial drug dilutions of eleven 3-fold dilution steps covering a range from 100 to 0.002 μg/mL were prepared. Then 4 × 10^4 bloodstream forms of STIB 900 strain (the stock was isolated in 1982 from a human patient in Tanzania and after several mouse passages was cloned and adapted to axenic culture conditions) of T. b. rhodesiense in 50 μL was added to each well and the plate incubated at 37 °C under a 5% CO2 atmosphere for 72 h. 10 µL of a resazurin solution (prepared dissolving 12.5 mg resazurin in 100 mL double distilled water) was then added to each well and incubation continued for a further 2–4 h. Then the plates were read in a Spectramax Gemini XS microplate fluorometer (Molecular Devices Cooperation, Sunnyvale, CA, USA) using an excitation wavelength of 536 nm and an emission wavelength of 588 nm. The IC50 values were calculated by linear regression from the sigmoidal dose inhibition curves using SoftmaxPro software (Molecular Devices Cooperation, Sunnyvale, CA, USA). Melarsoprol was the standard drug.

[2] = Cytotoxicity against L6 cells (resazurin, 72 h); format: cell-based, rat
Method: Assays were performed in 96-well microtiter plates, each well containing 100 μL of RPMI 1640 medium supplemented with 1% L-glutamine (200 mM) and 10% fetal bovine serum, and 4 × 10^4 L-6 cells. Serial drug dilutions of eleven 3-fold dilution steps covering a range from 100 to 0.002 μg/mL were prepared. After 72 h of incubation the plates were inspected under an inverted microscope to assure growth of the controls and sterile conditions. 10 μL of a resazurin solution (prepared dissolving 12.5 mg resazurin in 100 mL double distilled water) was then added to each well and the plates incubated for another 2 h. The plates were read with a Spectramax Gemini XS microplate fluorometer using an excitation wavelength of 536 nm and an emission wavelength of 588 nm. The IC50 values were calculated by linear regression from the sigmoidal dose inhibition curves using SoftmaxPro software (Molecular Devices Cooperation, Sunnyvale, CA, USA). The reported IC50 values are the means of at least two separate experiments. Podophyllotoxin was used as control drug.

[3] = test system: bloodstream forms of Trypanosoma brucei rhodesiense STIB 900 strain; assay: Activity against Trypanosoma brucei rhodesiense (resazurin, 72 h); format: cell-based; settings: at the highest test concentrations (20 μg/mL)
[4] = test system: bloodstream forms of Trypanosoma brucei rhodesiense STIB 900 strain; parameters: method as in PMID 22859016; settings: cited from earlier work
[5] = in vitro, bloodstream forms, mean of at least two replicates, read-out: IC50 T. b. rhodesiense
[6] = in vitro, bloodstream forms, mean of at least two replicates, read-out: IC50 T. b. rhodesiense (in parentheses)
[7] = rat skeletal myoblasts, mean of at least two replicates, read-out: IC50 Cytotoxicity L6 cells
[8] = rat skeletal myoblasts, mean of at least two replicates, read-out: IC50 Cytotoxicity L6 cells (in parentheses)
[9] = in vitro, read-out: IC50 against T. b. rhodesiense

**Q.** For `CC/C=C(C)\C=C\CCC[C@]1(OC)C[C@H](C)[C@H](CC(=O)OC)OO1` [12-Isomanadoperoxide B (2), 12-isomanadoperoxide B], which “selectivity index (SI)” value ([1]; IC50 against L6 cells divided by IC50 against the parasite) is on record?
**A.** Its value is 345.

**Q.** What about the IC50 [1, 5] of the same compound?
**A.** Its IC50 is 0.011 µg/mL.

**Q.** What about the IC50 [1, 6] of the same compound?
**A.** The IC50 was 32 nM.

**Q.** And the “trypanocidal activity relative to manadoperoxide B (1)” value ([1]; comparison of IC50 values against T. b. rhodesiense)?
**A.** Its value is “four-fold reduction”.

**Q.** And the IC50 at 72 h ([2]; rat)?
**A.** The IC50 at 72 h was 3.8 µg/mL and 11.2 µM.

**Q.** Which IC50 [1, 5] does the source give for `COC(=O)C[C@@H]1OO[C@@](CCCC=O)(OC)C[C@@H]1C` [Aldehyde 7] here?
**A.** The IC50 was 1.21 µg/mL.

**Q.** And the IC50 [1, 6]?
**A.** Its IC50 is 4420 nM.

**Q.** And the IC50 at 72 h ([2]; rat)?
**A.** The IC50 at 72 h was 7.55 µg/mL and 27.6 µM.

**Q.** Which IC50 [1, 5] does the source give for `CC/C=C(C)/C=C/CCCC1(O)C[C@H](C)[C@H](CC(=O)OC)O1` (stereo partly drawn) [Compound 6] here?
**A.** The IC50 was over 20 µg/mL.

**Q.** And the IC50 at 72 h ([2]; rat)?
**A.** The IC50 at 72 h was 82.3 µg/mL and 252 µM.

**Q.** And the “antitrypanosomal activity (in words)” value [3]?
**A.** The value was “inactive”.

**Q.** Which IC50 [1, 5] does the source give for `CC[C@H]1OO[C@@H](CCC[C@]2(OC)C[C@H](C)[C@H](CC(=O)OC)OO2)C=C1C` [Compound 8] here?
**A.** The IC50 was 0.16 µg/mL.

**Q.** What about the IC50 [1, 6] of the same compound?
**A.** The IC50 was 430 nM.

**Q.** What about the IC50 at 72 h ([2]; rat) of the same compound?
**A.** Its IC50 at 72 h is 12.6 µg/mL and 33.8 µM.

**Q.** What does the source list for `CC/C=C(C)/C=C/CCC[C@]1(OC)C[C@H](C)[C@H](CC(=O)OC)OO1` [Manadoperoxide B (1), manadoperoxide B]?
**A.** IC50 T. b. rhodesiense ([4]; in vitro): 0.003 µg/mL (≈ 8.81 nM); IC50 ([4]; in vitro, read-out: IC50 T. b. rhodesiense (in parentheses)): 8.8 nM

**Q.** Which IC50 [1, 5] does the source give for `CC/C=C(C)/C=C/CCC[C@]1(OC)C[C@H](C)[C@H](CC(=O)O)OO1` [Manadoperoxidic acid B (3), manadoperoxidic acid B] here?
**A.** Its IC50 is 1.87 µg/mL.

**Q.** What about the IC50 [1, 6] of the same compound?
**A.** The IC50 was 5740 nM.

**Q.** What about the IC50 at 72 h ([2]; rat) of the same compound?
**A.** Its IC50 at 72 h is 7.12 µg/mL and 21.8 µM.

**Q.** What does the source list for `Nc1nc(N)nc(Nc2ccc([As]3SCC(CO)S3)cc2)n1` (stereo not drawn) [Melarsoprol, reference compound]?
**A.** IC50 ([1]; read-out: IC50 T. b. rhodesiense): 0.002 µg/mL; IC50 ([1]; read-out: IC50 T. b. rhodesiense (in parentheses)): 5 nM; IC50 at 72 h [2, 7]: 7.3 µg/mL; IC50 at 72 h [2, 8]: 18200 nM

**Q.** With `COc1cc([C@@H]2c3cc4c(cc3[C@H](O)[C@H]3COC(=O)[C@H]23)OCO4)cc(OC)c1OC` [Podophyllotoxin, reference compound] as the compound, how does the IC50 at 72 h [2, 7] read?
**A.** The IC50 at 72 h was 0.004 µg/mL.

**Q.** What about the IC50 at 72 h [2, 8] of the same compound?
**A.** The IC50 at 72 h was 9.6 nM.

**Q.** Which results are given for manadoperoxide I?
**A.** IC50 against T. b. rhodesiense ([4]; in vitro): 0.062 µg/mL; IC50 [4, 9]: 170 nM

**Q.** Which results are given for manadoperoxide K?
**A.** IC50 against T. b. rhodesiense ([4]; in vitro): 0.087 µg/mL; IC50 [4, 9]: 240 nM

**Q.** For peroxyplakoric ester B3, which “activity against T. b. rhodesiense (in words)” value ([4]; methyl linked at C-2 in place of C-4) is on record?
**A.** The value was “almost completely lost”.
